Consider eleven compounds from patent publication US11542266B1, “Substituted piperidines as BTK inhibitors” (HAISCO PHARMACEUTICALS PTE. LTD., priority 2019, dated 2023).

In data set [1] the test system is SU-DHL-4 cells. The data set is described as follows: Inhibition of cell proliferation, SU-DHL-4 cells (Cell Viability Assay, 72 h). It counts as cell-based, human. The following applies: Homo sapiens. The protocol:
(§1) SU-DHL-4, Mino, and SU-DHL-6 cells, in the culture medium of RPMI1640+10% FBS, were cultured in an incubator at 37° C. under 5% CO2. Cells were plated in a 96-well plate. Specifically, SU-DHL-4 cells were at 20000/well, Mino and SU-DHL-6 cells were at 5000/well, with 90 μL/well. 10 μL of the compounds at different concentrations were added to each well. There were 3 replicate wells for each concentration, and the last column, added with DMSO, was used as a vehicle control group. The cultures were continued for 72 hours at 37° C. under 5% CO2. After 72 hours, 100 μL of detection reagent (Cell Viability Assay, Promega, G7573) was added to each well, and the cultures were uniformly mixed for 2 minutes, and incubated at room temperature for 10 minutes. The fluorescence signal value was measured with a microplate reader (PHERAstar FSX). The IC50 value of the compound on cell proliferation inhibition was calculated using Origin 9.2 software, and the inhibition rate at the highest concentration of the compound (Max inhi. %) was calculated according to formula (1). Max inhi. %=(1-T72 administration/T72 vehicle)×100 Formula (1).

The subject of data set [2] is Mino cells. The data set is described as follows: Inhibition of cell proliferation, Mino cells (Cell Viability Assay, 72 h). The format is cell-based, human. A digest of the protocol:
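RPMI1640 + 10% FBS cultures seeded at 20000/well (SU-DHL-4) or 5000/well (Mino, SU-DHL-6), exposed to compound dilutions in triplicate for 72 h at 37 °C, 5% CO2, DMSO vehicle control. Viability read by luminescent reagent; IC50 from dose-response and Max inhi. % = (1 − T72 treated/T72 vehicle)×100 at top concentration.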

A short description of data set [3]: Pharmacokinetic experiment in rats (i.g. vehicle 0.5% MC). It counts as in vivo. The following applies: male SD rats; for AUC(0-t): plasma, i.g. 20 mg/kg, vehicle 0.5% MC. The protocol: Objective: In this experiment, a single dose of each test compound was administered to SD rats intravenously and intragastrically, the concentrations of the test compound in plasma of rats were measured, and the pharmacokinetic characteristics and bioavailability of the test compound in rats were evaluated.
Experimental animals: Male SD rats, 200-250 g, 6-8 weeks old, 6 rats/test compound. The experimental animals were purchased from CHENGDU DOSSY EXPERIMENTAL ANIMALS CO., LTD.
Experimental method: On the day of the experiment, 6 SD rats were randomly grouped according to their body weight. The animals were fasted with water available for 12 to 14 hours one day before the administration of a test compound, and were fed 4 hours after the administration.
Sampling: Before and after the administration, 0.1 ml of blood was taken from the orbit of the rats under isoflurane anesthesia, and placed in an EDTAK2 centrifuge tube. Centrifugation was carried out at 5000 rpm at 4° C. for 10 min and the plasma was collected.
Time points for plasma collection in G1 group: 0, 5 m, 15 m, 30 m, 1 h, 2 h, 4 h, 6 h, 8 h, and 24 h.
Time points for plasma collection in G2 group: 0, 15 m, 30 m, 1 h, 2 h, 4 h, 6 h, 8 h, and 24 h.
Before analysis and detection, all samples were stored at −80° C. The samples were analyzed quantitatively by LC-MS/MS.

Data set [4] deals with SU-DHL-6 cells. The data set is described as follows: Inhibition of cell proliferation, SU-DHL-6 cells (Cell Viability Assay, 72 h). It counts as cell-based. The conditions noted are these: Homo sapiens. The protocol:
as §1

Where [5] appears, read: Sprague-Dawley (SD), rat, po, read-out: AUC0-t.

Where a name gives a salt, the structure may show the parent alone. Read-outs that look alike come from different tables or passages of the source.

Take `Nc1ncnc2c1c(-c1ccc(Oc3ccccc3)cc1)nn2C1CCN(C2CCN(C3CCN(c4ccc5c(c4)C(=O)N(C4CCC(=O)NC4=O)C5=O)CC3)CC2)CC1` (centres unmarked) [Compound 2, 5-[4-[4-[4-[4-amino-3-(4-phenoxyphenyl)pyrazolo[3,4-d]pyrimidin-1-yl]-1-piperidyl]-1-piperidyl]-1-piperidyl]-2-(2,6-dioxo-3-piperidyl)isoindoline-1,3-dione]: the IC50 – broadly, the midpoint of a concentration-inhibition curve – in data set [1] was determined as 41 nM; in data set [2] (Homo sapiens) it was 633 nM; in data set [4], 26 nM. Moreover, in data set [3] (setting [5]), the AUC(0-t) stood at 18.6 ± 2.8 ng·h/mL.
As for `Nc1ncnc2c1c(-c1ccc(Oc3ccccc3)cc1)nn2C1CCN(CC2CCN(C3CN(c4ccc5c(c4)C(=O)N(C4CCC(=O)NC4=O)C5=O)C3)CC2)CC1` (centres unmarked) [Compound 6, 5-(3-(4-((4-(4-amino-3-(4-phenoxyphenyl)-1H-pyrazolo[3,4-d]pyrimidin-1-yl)piperidin-1-yl)methyl)piperidin-1-yl)azetidin-1-yl)-2-(2,6-dioxopiperidin-3-yl)isoindoline-1,3-dione tritrifluoroacetate], the IC50 in data set [2] (Homo sapiens) was found to be 421 nM; in data set [4] it was 166 nM. The AUC(0-t) in data set [3] (setting [5]) was 328 ± 41 ng·h/mL.
With `Nc1ncnc2c1c(-c1ccc(Oc3ccccc3)cc1)nn2C1CCN(CC2CCN(C3CCN(c4ccc5c(c4)C(=O)N(C4CCC(=O)NC4=O)C5=O)CC3)CC2)CC1` (centres unmarked) [Compound 9, 5-(4-((4-(4-amino-3-(4-phenoxyphenyl)-1H-pyrazolo[3,4-d]pyrimidin-1-yl)piperidin-1-yl)methyl)-[1,4′-bipiperidin]-1′-yl)-2-(2,6-dioxopiperidin-3-yl)isoindoline-1,3-dione tetratrifluoroacetate], the IC50 was found to be 295 nM in data set [1], 367 nM in data set [2] (Homo sapiens) and 155 nM in data set [4]. In data set [3] (setting [5]), the AUC(0-t) turned out to be 8.93 ± 4.3 ng·h/mL.
For `Nc1ncnc2c1c(-c1ccc(Oc3ccccc3)cc1)nn2C1CCN(CC2CN(C3CCN(c4ccc5c(c4)C(=O)N(C4CCC(=O)NC4=O)C5=O)CC3)C2)CC1` (centres unmarked) [Compound 10, 5-(4-(3-((4-(4-amino-3-(4-phenoxyphenyl)-1H-pyrazolo[3,4-d]pyrimidin-1-yl)piperidin-1-yl)methyl)azetidin-1-yl)piperidin-1-yl)-2-(2,6-dioxopiperidin-3-yl)isoindoline-1,3-dione Tetratrifluoroacetate], the IC50 in data set [2] (Homo sapiens) was 405 nM; in data set [4], 77 nM.
`Nc1ncnc2c1c(-c1ccc(Oc3ccccc3)cc1)nn2C1CCN(C2CN(C3CCN(C4CCN(C5CCN(c6ccc7c(c6)C(=O)N(C6CCC(=O)NC6=O)C7=O)CC5)CC4)CC3)C2)CC1` (centres unmarked) [Compound 11, 5-[4-[4-[4-[3-[4-[4-amino-3-(4-phenoxyphenyl)pyrazolo[3,4-d]pyrimidin-1-yl]-1-piperidyl]azetidin-1-yl]-1-piperidyl]-1-piperidyl]-1-piperidyl]-2-(2,6-dioxo-3-piperidyl)isoindoline-1,3-dione Hexatrifluoroacetate]: the results for the IC50 in data set [1], in data set [2] (Homo sapiens) and in data set [4] were 189 nM, 114 nM and 109 nM, respectively.
The corresponding values for `Nc1ncnc2c1c(-c1ccc(Oc3ccccc3)cc1)nn2C1CCN(C2CCN(C3CCN(C4CCN(c5ccc6c(c5)C(=O)N(C5CCC(=O)NC5=O)C6=O)CC4)CC3)CC2)CC1` (centres unmarked) [Compound 12, 5-[4-[4-[4-[4-[4-amino-3-(4-phenoxyphenyl)pyrazolo[3,4-d]pyrimidin-1-yl]-1-piperidyl]-1-piperidyl]-1-piperidyl]-1-piperidyl]-2-(2,6-dioxo-3-piperidyl)isoindoline-1,3-dione pentatrifluoroacetate] are 56 nM, 183 nM and 106 nM.
For `Nc1ncnc2c1c(-c1ccc(Oc3ccccc3)cc1)nn2C1CCN(C2CCN(C3CCN(C4CCN(C5CCN(c6ccc7c(c6)C(=O)N(C6CCC(=O)NC6=O)C7=O)CC5)CC4)CC3)CC2)CC1` (centres unmarked) [Compound 14, 5-[4-[4-[4-[4-[4-[4-amino-3-(4-phenoxyphenyl)pyrazolo[3,4-d]pyrimidin-1-yl]-1-piperidyl]-1-piperidyl]-1-piperidyl]-1-piperidyl]-1-piperidyl]-2-(2,6-dioxo-3-piperidyl)isoindoline-1,3-dione Hexatrifluoroacetate], the results for the IC50 in data set [1] and in data set [4] were 60 nM and 86 nM, respectively.
Consider `Nc1ncnc2c1c(-c1ccc(Oc3ccccc3)cc1)nn2C1CCN(C2CN(C3CN(c4ccc5c(c4)C(=O)N(C4CCC(=O)NC4=O)C5=O)C3)C2)CC1F` (stereo not drawn) [Compound 19, trans-5-(3-(4-(4-amino-3-(4-phenoxyphenyl)-1H-pyrazolo[3,4-d]pyrimidin-1-yl)-3-fluoropiperidin-1-yl)-[1,3′-biazetidin]-1′-yl)-2-(2,6-dioxopiperidin-3-yl)isoindoline-1,3-dione trifluoroacetate], for which the IC50 is 48 nM in data set [2] (Homo sapiens) and 782 nM in data set [4].
`Nc1ncnc2c1c(-c1ccc(Oc3ccccc3)cc1)nn2C1CCN(C2CCN(C3CN(c4cc5c(cc4F)C(=O)N(C4CCC(=O)NC4=O)C5=O)C3)CC2)CC1` (centres unmarked) [Compound 32, 5-(3-(4-(4-amino-3-(4-phenoxyphenyl)-1H-pyrazolo[3,4-d]pyrimidin-1-yl)-[1,4′-bipiperidin]-1′-yl)azetidin-1-yl)-2-(2,6-dioxopiperidin-3-yl)-6-fluoroisoindoline-1,3-dione]: the IC50 in data set [1] came to 330 nM; in data set [2] (Homo sapiens), 188 nM; in data set [4] it was 393 nM. The AUC(0-t) in data set [3] (setting [5]) stood at 322 ± 64 ng·h/mL.
As for `Nc1ncnc2c1c(-c1ccc(Oc3ccccc3)cc1)nn2C1CCN(C2CN(C3CCC(Oc4ccc5c(c4)C(=O)N(C4CCC(=O)NC4=O)C5=O)CC3)C2)CC1` (centres unmarked) [Compound 37, 5-[4-[3-[4-[4-amino-3-(4-phenoxyphenyl)pyrazolo[3,4-d]pyrimidin-1-yl]-1-piperidyl]azetidin-1-yl]cyclohexoxy]-2-(2,6-dioxo-3-piperidyl)isoindoline-1,3-dione], in data set [1], the IC50 turned out to be 631 nM. In addition, the AUC(0-t) in data set [3] (setting [5]) was 473 ± 105 ng·h/mL.
`Nc1ncnc2c1c(-c1ccc(Oc3ccccc3)cc1)nn2C1CCN(C2CCN(C3CN(c4ccc5c(c4)C(=O)N(C4CCC(=O)NC4=O)C5=O)C3)CC2F)CC1` (stereo not drawn) [Compound 49-2, cis-5-(3-(4-(4-amino-3-(4-phenoxyphenyl)-1H-pyrazolo[3,4-d]pyrimidin-1-yl)-3′-fluoro-[1,4′-bipiperidin]-1′-yl)azetidin-1-yl)-2-(2,6-dioxopiperidin-3-yl)isoindoline-1,3-dione-P2] displayed an IC50 in data set [2] of 10 nM. In data set [3] (i.g. 20 mg/kg (0.5% MC) vs i.v. 5 mg/kg), the “F (%)” value amounted to 4.14 ± 2.1%. In data set [3], this compound returned an AUC(0-t) of 475 ± 237 ng·h/mL.
